{"source": "patent US8486945B2", "about": "“Heterocyclic inhibitors of an Hh-signal cascade, medicinal compositions based thereon and methods for treating diseases caused by the aberrant activity of an Hh-signal system” (priority 2007, dated 2013)", "tested_on": "Hh-signalling cascade", "test": "Inhibition of SHh-induced alkaline phosphatase in C3H10T1/2 cells (Hh-signalling cascade inhibition)", "assay_type": "cell-based", "from_the_text": "C3H10T1/2 Cells were used for identification of inhibitors of SHh-protein signaling cascade. SHh-protein activates C3H10T1/2 cells, that leads to their osteogenic differentiation [1) Kinto N., Iwamoto M., Enomoto-Iwamoto M., Noji S., Ohuchi H., Yoshioka H., Kataoka H., Wada Y., Yuhao G., Takahashi H. E., Yoshiki S., Yamaguchi A. Fibroblasts expressing Sonic hedgehog induce osteoblast differentiation and ectopic bone formation. FEBS Lett. 1997; 404(2-3): 319-23. 2) Spinella-Jaegle S., Rawadi G., Kawai S., Gallea S., Faucheu C., Mollat P., Courtois B., Bergaud B., Ramez V., Blanchet A. M., Adelmant G., Baron R., Roman-Roman S. Sonic hedgehog increases the commitment of pluripotent mesenchymal cells into the osteoblastic lineage and abolishes adipocytic differentiation. J. Cell Sci. 2001; 114(Pt 11): 2085-94] and, in particular, to expression enhancement of alkaline phosphatase enzyme.\nThe cells were cultivated in DMEM medium with 10% embryonal calfish serum in incubator at 37° C., 100% humidity and 5% CO2 content. The cells were placed in 384-well plates and left for night. On the next day the tested compounds in concentration of 10 μM were added to the cells, incubated for 30 min, then recombinant (R & D Systems, USA) SHh protein in concentration of 0.3 μg/ml was added and incubation was continued for 3 days. Cells with DMSO instead of a test compound and cells without SHh protein were used as test control. For determination of the cell alkaline phosphatase activity the cells were lysed in the buffer containing 0.2% Triton-X100, lisates were incubated together with proluminescent substrate CSPD (Applied Biosystems, USA) and the resultant luminescence was measured using reader VICTOR^2V (PerkinElmer, USA).\nThe ability of the compounds to inhibit Hh-signalling cascade was determined using C3H10T1/2 cells in 384-well plates as described in example 1. The compounds were added in triplicates in various concentrations, prepared by multiple dilution of starting solutions (concentration dependences of cell alkaline phosphatase inhibition induced by the addition of tested compounds are shown in FIG. 1). Activity of the compounds was characterized by their concentrations produced half maximal inhibition of stimulation of cell alkaline phosphatase SHh (IC50).", "key": {"[1]": {"details": "Mus musculus, C3H 10T1/2, half maximal inhibition of SHh (0.3 μg/ml) stimulation of cell alkaline phosphatase"}}}
{"smiles": "COCCNC(=O)C1CCN(C(=O)c2cc3sccc3n2Cc2ccc(F)cc2)CC1", "note": "[V-1036, 1-[4-(4-Fluorobenzyl)-4H-thieno[3,2-b]pyrrole-5-carbonyl]piperidine-4-carboxylic acid (2-methoxyethyl)amide]", "values": [{"measurement": "IC50", "setting": "[1]", "result": "< 0.5", "unit": "µM"}]}
{"smiles": "O=C(NCc1ccc(F)cc1)C1CCN(C(=O)c2cc3sccc3n2Cc2ccc(F)cc2)CC1", "note": "[V-1037, 1-[4-(4-Fluorobenzyl)-4H-thieno[3,2-b]pyrrole-5-carbonyl]piperidine-4-carboxylic acid [(4-fluorophenyl)methyl]amide]", "values": [{"measurement": "IC50", "setting": "[1]", "result": "< 50", "unit": "µM"}]}
{"smiles": "CCN1CCCC1CNC(=O)C1CCN(C(=O)c2cc3sccc3n2Cc2ccc(F)cc2)CC1", "note": "(stereo not shown) [V-1038, 1-[4-(4-Fluorobenzyl)-4H-thieno[3,2-b]pyrrole-5-carbonyl]piperidine-4-carboxylic acid [(1-ethylpyrrolidin-2-yl)methyl]amide]", "values": [{"measurement": "IC50", "setting": "[1]", "result": "< 0.5", "unit": "µM"}]}
{"smiles": "CCOCCCNC(=O)C1CCN(C(=O)c2cc3sccc3n2Cc2ccc(F)cc2)CC1", "note": "[V-1039, 1-[4-(4-Fluorobenzyl)-4H-thieno[3,2-b]pyrrole-5-carbonyl]piperidine-4-carboxylic acid (3-ethoxypropyl)amide]", "values": [{"measurement": "IC50", "setting": "[1]", "result": "< 0.5", "unit": "µM"}]}
{"smiles": "COCCCNC(=O)C1CCN(C(=O)c2cc3sccc3n2Cc2ccc(F)cc2)CC1", "note": "[V-1040, 1-[4-(4-Fluorobenzyl)-4H-thieno[3,2-b]pyrrole-5-carbonyl]piperidine-4-carboxylic acid (3-methoxypropyl)amide]", "values": [{"measurement": "IC50", "setting": "[1]", "result": "< 0.5", "unit": "µM"}]}
{"smiles": "O=C(NCCN1CCOCC1)C1CCN(C(=O)c2cc3sccc3n2Cc2ccc(F)cc2F)CC1", "note": "[V-1041, 1-[4-(2,4-Difluorobenzyl)-4H-thieno[3,2-b]pyrrole-5-carbonyl]piperidine-4-carboxylic acid (2-N-morpholinoethyl)amide]", "values": [{"measurement": "IC50", "setting": "[1]", "result": "< 0.5", "unit": "µM"}]}
{"smiles": "O=C(NCCCN1CCCC1)C1CCN(C(=O)c2cc3sccc3n2Cc2ccc(F)cc2)CC1", "note": "[V-1042, 1-[4-(4-Fluorobenzyl)-4H-thieno[3,2-b]pyrrole-5-carbonyl]piperidine-4-carboxylic acid (3-N-pyrrolidinopropyl)amide]", "values": [{"measurement": "IC50", "setting": "[1]", "result": "< 0.5", "unit": "µM"}]}
{"smiles": "O=C(c1cc2sccc2n1Cc1ccc(Cl)cc1)N1CCC(C(=O)N2CCCC2)CC1", "note": "[V-1044, 1-[4-(4-Chlorobenzyl)-4H-thieno[3,2-b]pyrrole-5-carbonyl]piperidine-4-carboxylic acid tetramethylenamide]", "values": [{"measurement": "IC50", "setting": "half maximal inhibition of SHh (0.3 μg/ml) stimulation of cell alkaline phosphatase", "result": "< 0.5", "unit": "µM"}]}
{"smiles": "O=C(NCc1ccccn1)C1CCN(C(=O)c2cc3sccc3n2Cc2ccc(Cl)cc2)CC1", "note": "[V-1045, 1-[4-(4-Chlorobenzyl)-4H-thieno[3,2-b]pyrrole-5-carbonyl]piperidine-4-carboxylic acid [(pyridin-2-yl)methyl]amide]", "values": [{"measurement": "IC50", "setting": "[1]", "result": "< 5", "unit": "µM"}]}
{"smiles": "O=C(NCC1CCCO1)C1CCN(C(=O)c2cc3sccc3n2Cc2ccc(Cl)cc2)CC1", "note": "(stereo not shown) [V-1046, 1-[4-(4-Chlorobenzyl)-4H-thieno[3,2-b]pyrrole-5-carbonyl]piperidine-4-carboxylic acid [(tetrahydrofuran-2-yl)methyl]amide]", "values": [{"measurement": "IC50", "setting": "[1]", "result": "< 5", "unit": "µM"}]}
{"smiles": "COCCCNC(=O)C1CCN(C(=O)c2cc3sccc3n2Cc2ccc(Cl)cc2)CC1", "note": "[V-1047, 1-[4-(4-Chlorobenzyl)-4H-thieno[3,2-b]pyrrole-5-carbonyl]piperidine-4-carboxylic acid (3-methoxypropyl)amide]", "values": [{"measurement": "IC50", "setting": "[1]", "result": "< 0.5", "unit": "µM"}]}
{"smiles": "CN1CCN(C(=O)C2CCN(C(=O)c3cc4sccc4n3Cc3ccc(F)cc3)CC2)CC1", "note": "[V-1048, [4-(4-Fluorobenzyl)-4H-thieno[3,2-b]pyrrol-5-yl]-[4-(4-methylpiperazine-1-carbonyl)piperidin-1-yl]methanone]", "values": [{"measurement": "IC50", "setting": "[1]", "result": "< 0.5", "unit": "µM"}]}
{"smiles": "CN1CCN(C(=O)C2CCN(C(=O)c3cc4sccc4n3Cc3cccc(Cl)c3)CC2)CC1", "note": "[V-1049, [4-(3-Chlorobenzyl)-4H-thieno[3,2-b]pyrrol-5-yl]-[4-(4-methylpiperazine-1-carbonyl)piperidin-1-yl]methanone]", "values": [{"measurement": "IC50", "setting": "[1]", "result": "< 0.5", "unit": "µM"}]}
{"smiles": "CN1CCN(C(=O)C2CCN(C(=O)c3cc4sccc4n3Cc3cccc(F)c3)CC2)CC1", "note": "[V-1050, [4-(3-Fluorobenzyl)-4H-thieno[3,2-b]pyrrol-5-yl]-[4-(4-methylpiperazine-1-carbonyl)piperidin-1-yl]methanone]", "values": [{"measurement": "IC50", "setting": "[1]", "result": "< 0.5", "unit": "µM"}]}
{"smiles": "CN1CCN(C(=O)C2CCN(C(=O)c3cc4sccc4n3Cc3ccccc3F)CC2)CC1", "note": "[V-1051, [4-(2-Fluorobenzyl)-4H-thieno[3,2-b]pyrrol-5-yl]-[4-(4-methylpiperazine-1-carbonyl)piperidin-1-yl]methanone]", "values": [{"measurement": "IC50", "setting": "[1]", "result": "< 0.5", "unit": "µM"}]}
{"smiles": "CN1CCN(C(=O)C2CCN(C(=O)c3cc4sccc4n3Cc3ccccc3Cl)CC2)CC1", "note": "[V-1052, [4-(2-Chlorobenzyl)-4H-thieno[3,2-b]pyrrol-5-yl]-[4-(4-methylpiperazine-1-carbonyl)piperidin-1-yl]methanone]", "values": [{"measurement": "IC50", "setting": "[1]", "result": "< 0.5", "unit": "µM"}]}
{"smiles": "COc1ccc(Cn2c(C(=O)N3CCC(C(=O)N4CCN(C)CC4)CC3)cc3sccc32)cc1", "note": "[V-1053, [4-(4-Methoxybenzyl)-4H-thieno[3,2-b]pyrrol-5-yl]-[4-(4-methylpiperazine-1-carbonyl)piperidin-1-yl]methanone]", "values": [{"measurement": "IC50", "setting": "[1]", "result": "< 0.5", "unit": "µM"}]}
{"smiles": "CN1CCN(C(=O)C2CCN(C(=O)c3cc4sccc4n3Cc3ccc(N(C)C)cc3)CC2)CC1", "note": "[V-1054, [4-(4-Dimethylaminobenzyl)-4H-thieno[3,2-b]pyrrol-5-yl]-[4-(4-methylpiperazine-1-carbonyl)piperidin-1-yl]methanone]", "values": [{"measurement": "IC50", "setting": "[1]", "result": "< 0.5", "unit": "µM"}]}
{"smiles": "CN1CCN(C(=O)C2CCN(C(=O)c3cc4sccc4n3Cc3ccc4c(c3)OCO4)CC2)CC1", "note": "[V-1055, [4-(3,4-Methylendioxybenzyl)-4H-thieno[3,2-b]pyrrol-5-yl]-[4-(4-methylpiperazine-1-carbonyl)piperidin-1-yl]methanone]", "values": [{"measurement": "IC50", "setting": "[1]", "result": "< 0.5", "unit": "µM"}]}
{"smiles": "CCOc1ccc(NC(=O)c2ccnc(N3CCC(C(=O)Nc4ccc(F)cc4)CC3)c2)cc1", "note": "[VI-1007, 3,4,5,6-Tetrahydro-2H-[1,2′]bipyridinyl-4,4′-carboxylic acid 4′-[(4-ethoxyphenyl)amide] 4-[(4-fluorophenyl)amide]]", "values": [{"measurement": "IC50", "setting": "[1]", "result": "< 5", "unit": "µM"}]}
{"smiles": "CS(=O)(=O)N1CCCc2cc(C(=O)Nc3ccc4c(c3)OCO4)ccc21", "note": "[VII-1005, 1-Methylsulfonyl-1,2,3,4-tetrahydroquinoline-6-carboxylic acid (benzo[1,3]dioxol-5-yl)amide]", "values": [{"measurement": "IC50", "setting": "[1]", "result": "< 0.5", "unit": "µM"}]}
{"smiles": "O=C(Nc1ccc(F)cc1)c1ccc2c(c1)CCCN2S(=O)(=O)c1ccccc1", "note": "[VII-1012, 1-Phenylsulfonyl-1,2,3,4-tetrahydroquinoline-6-carboxylic acid (4-fluorophenyl)amide]", "values": [{"measurement": "IC50", "setting": "[1]", "result": "< 5", "unit": "µM"}]}
{"smiles": "COc1ccc(NC(=O)c2ccc3c(c2)CCCN3S(=O)(=O)c2ccc(C)cc2)cc1", "note": "[VII-1014, 1-Tosyl-1,2,3,4-tetrahydroquinoline-6-carboxylic acid (4-methoxyphenyl)amide]", "values": [{"measurement": "IC50", "setting": "[1]", "result": "< 5", "unit": "µM"}]}
{"smiles": "Cc1ccc(NC(=O)c2ccc3c(c2)CCCN3S(=O)(=O)c2ccc(Cl)cc2)cc1C", "note": "[VII-1017, 1-(4-Chlorophenylsulfonyl)-1,2,3,4-tetrahydroquinoline-6-carboxylic acid (3,4-dimethylphenyl)amide]", "values": [{"measurement": "IC50", "setting": "[1]", "result": "< 0.5", "unit": "µM"}]}
{"smiles": "Cc1ccc(NC(=O)c2ccc3c(c2)CCCN3S(=O)(=O)c2ccc(Br)cc2)cc1", "note": "[VII-1020, 1-(4-Bromophenylsulfonyl)-1,2,3,4-tetrahydroquinoline-6-carboxylic acid p-tolylamide]", "values": [{"measurement": "IC50", "setting": "[1]", "result": "< 5", "unit": "µM"}]}
{"smiles": "CCS(=O)(=O)N1CCCc2cc(C(=O)Nc3ccccc3F)ccc21", "note": "[VII-1025, 1-Ethylsulfonyl-1,2,3,4-tetrahydroquinoline-6-carboxylic acid (2-fluorophenyl)amide]", "values": [{"measurement": "IC50", "setting": "[1]", "result": "< 5", "unit": "µM"}]}
{"smiles": "CN1CCc2c(sc(NC(=O)C3CC3)c2-c2nc3ccccc3s2)C1", "note": "[VIII-1003, Cyclopropanecarboxylic acid (3-benzo[d]thiazol-2-yl-6-methyl-4,5,6,7-tetrahydrothieno[2,3-c]pyridin-2-yl)amide]", "values": [{"measurement": "IC50", "setting": "[1]", "result": "< 5", "unit": "µM"}]}
{"smiles": "CC(=O)N1CCc2c(sc(NC(=O)C3CCCCC3)c2-c2nc3ccccc3s2)C1", "note": "[VIII-1016, Cyclohexanecarboxylic acid (6-acetyl-3-benzo[d]thiazol-2-yl-4,5,6,7-tetrahydrothieno[2,3-c]pyridin-2-yl)amide]", "values": [{"measurement": "IC50", "setting": "[1]", "result": "< 5", "unit": "µM"}]}
{"smiles": "CC(=O)N1CCc2c(sc(NC(=O)Cc3ccccc3)c2-c2nc3ccccc3s2)C1", "note": "[VIII-1017, N-(6-Acetyl-3-benzo[d]thiazol-2-yl-4,5,6,7-tetrahydrothieno[2,3-c]pyridin-2-yl)-2-phenylacetamide]", "values": [{"measurement": "IC50", "setting": "[1]", "result": "< 50", "unit": "µM"}]}
{"smiles": "COC(=O)c1ccc(C(=O)Nc2sc3c(c2-c2nc4ccccc4s2)CCN(C(C)C)C3)cc1", "note": "[VIII-1025]", "values": [{"measurement": "IC50", "setting": "[1]", "result": "< 50", "unit": "µM"}]}
{"smiles": "CN1CCc2c(sc(NC(=O)c3cccc(C(F)(F)F)c3)c2-c2nc3ccccc3s2)C1", "note": "[VIII-1026, N-(3-(Benzo[d]thiazol-2-yl)-6-methyl-4,5,6,7-tetrahydrothieno[2,3-c]pyridin-2-yl)-3-trifluoromethylbenzamide]", "values": [{"measurement": "IC50", "setting": "[1]", "result": "< 50", "unit": "µM"}]}
